Laboratory results: ChEMBL document CHEMBL4418295, “Method for identifying modulators of GPCR GPR1 function” (2014)
pEC50: −log10 of the molar value.

Target: T1, Chemerin-like receptor 2 (Homo sapiens, UniProt P46091)
T1 sequence (P46091 whole entry): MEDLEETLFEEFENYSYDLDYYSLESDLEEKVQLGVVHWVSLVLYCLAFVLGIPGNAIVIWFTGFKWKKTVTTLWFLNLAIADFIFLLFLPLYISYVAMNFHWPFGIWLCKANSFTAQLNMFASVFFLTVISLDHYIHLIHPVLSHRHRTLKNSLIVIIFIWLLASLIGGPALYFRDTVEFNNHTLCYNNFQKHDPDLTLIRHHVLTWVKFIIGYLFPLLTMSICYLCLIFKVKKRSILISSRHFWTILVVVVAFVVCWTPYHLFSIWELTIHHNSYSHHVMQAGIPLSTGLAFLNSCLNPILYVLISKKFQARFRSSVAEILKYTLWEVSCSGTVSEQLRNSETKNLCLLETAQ
Assay: Agonist activity at recombinant human GPR1 expressed in CHOK1 PathHunter cells assessed as beta-arrestin 2 recruitment incubated for 90 mins by luminescence assay
Type: cell-based

CC[C@H](C)[C@H](NC(=O)[C@H](CCC(=O)O)NC(=O)[C@@H](CO)NC(=O)[C@@H](NC(=O)[C@H](CC(C)C)NC(=O)[C@H](CC(C)C)NC(=O)[C@H](CC(C)C)NC(=O)[C@H](CC(C)C)NC(=O)[C@H](CS)NC(=O)[C@H](CO)NC(=O)[C@H](Cc1ccccc1)NC(=O)CNC(=O)[C@H](CCCNC(=N)N)NC(=O)[C@@H]1CCCN1C(=O)[C@H](C)NC(=O)[C@@H](N)CCSC)[C@@H](C)O)C(=O)N[C@@H](CC(=O)O)C(=O)N[C@@H](CC(C)C)C(=O)N1CCC[C@H]1C(=O)N[C@H](C(=O)N[C@@H](CCCCN)C(=O)N[C@@H](CCCNC(=N)N)C(=O)N[C@@H](CCCNC(=N)N)C(=O)N[C@@H](C)C(=O)O)C(C)C
pEC50: 7.03
